Results on four substances are retold here after US7737119B2, “Cosmetic or pharmaceutical composition comprising peptides, uses and treatment processes” (Societe d'Extraction des Principes Actifs S.A., priority 2002, dated 2010).

Where no end group is shown, it is not given here.

One data set has as its system keratin. The experiment in a line: Immunofluorescence study of keratin expression in ex vivo human skin samples. It is filed as cell-based. The settings on record: 48 hours. How it is done:
(§1) Human fibroblasts are plated in Labteks then cultured for one night. After rinsing with HBS buffer, a composition containing 1% of a solution at 100 ppm of the peptide SEQ ID NO: 5, or a control composition containing no peptide, is added. The cells are then incubated for 48 hours. After performing the elimination of the supernatants and rinsing the cultures, the cells are fixed with paraformaldehyde for 30 minutes at 4° C. then rinsed with PBS buffer.
(§2) 200 μL of anti-fibronectin antibody or anti-collagen I, or anti-collagen III polyclonal antibody obtained in the rabbit (TEBU) are then added. Incubation lasts 30 minutes at room temperature. The supernatants are eliminated and the cells are rinsed with PBS. 200 μL of secondary antibody, coupled to a fluorescent marker (Alexa-fluor 488) are then added. After 30 minutes of incubation at room temperature, the supernatants are eliminated and the cells are rinsed with the PBS.
(§3) The slides are then assembled and examined under epi-fluorescence microscope (Nikon Eclipse E600). The quantities of fibronectine and/or collagen of the type I and III, synthesized by the cells, are proportional to fluorescence intensity.
A study by immunofluorescence technique, identical to that of Example 3, was performed on ex vivo human skin samples, with anti-keratin monoclonal antibody (Novocastra).

Data set [1] can be described thus: Stability of peptide in culture medium conditioned by human fibroblasts and keratinocytes (released enzymes of degradation). It is filed as in vitro ADME. The settings on record: after 24 hours in culture medium withdrawn from human fibroblasts and keratinocytes cultured 24 hours at 37° C. How it is done:
Human fibroblasts and keratinocytes were cultured during 24 hours at 37° C. and to 5% of CO2. For this period, the cells will release numerous enzymes of degradation in the culture medium. Thereafter, the culture medium is withdrawn to be put in the presence of peptide.

Data set [2] can be described thus: Stability of peptide in solution by HPLC (C18) at various temperatures. Format: physicochemical. The conditions noted are these: 10^−4 M. How it is done:
Peptide SEQ ID NO: 3 Arg-Asp-Phe-Thr-Lys-Ala-Thr-Asn-Ile-Arg-Leu-Arg-Phe-Leu-Arg was analyzed with a concentration of 10^−4 M by HPLC on a C18 type column, and with a linear gradient water/TFA 0.1%-acetonitrile/TFA 0.1%.

Data set [3] has as its system fibroblasts as well as human keratinocytes in culture. The experiment in a line: Peptide applied to cells in culture, HPLC analysis of the culture medium. It is filed as cell-based. The conditions noted are these: peptide applied to fibroblasts and human keratinocytes in culture, in a few hours. How it is done:
A test is performed by applying the peptide to fibroblasts as well as to human keratinocytes in culture.

The subject of a further data set is keratinocytes. The experiment in a line: Adhesion between cutaneous cells, MTT reading of adherent keratinocytes in 96 well micro-plates. Format: cell-based. The settings on record: after 3 hours of contact with the keratinocytes; compared with the other peptides tested. How it is done: The study is performed in 96 well micro-plates on keratinocytes cultured in an incubator at 37° C. and 5% of CO2.
The wells are pre-treated during 12 hours in a different way; four conditions are thus performed: • Condition A: negative control, containing no peptide; • Condition B: incubated with various peptides, made of 3 to 25 amino acids (from the extracellular matrix), with a concentration from 5 to 50 ppm; • Condition C: incubated with the peptide of sequence Arg-Asp-Phe-Thr-Lys-Ala-Thr-Asn-Ile-Arg-Leu-Arg-Phe-Leu-Arg (SEQ ID NO: 3) to a concentration of 5 ppm.
After 3 hours of contact with the keratinocytes, the wells are completely filled with culture medium, hermetically closed, turned over and agitated on a three-dimensional agitator during 20 minutes. Then the plates are emptied and the medium remaining is aspired. 100 μl of MTT with 1 mg/ml per well is added and is left during 3 hours at 37° C. and 5% of CO2. The solution is finally withdrawn and 100 μl of DMSO is added. A reading of C is made at 560 nm against 630 nm.
The results present the various Optical Density (O.D.) obtained according to the various conditions. The O.D. is proportional to the quantity of viable cells, that is to say those which adhered to the micro-plates.

The subject of a further data set is type III collagen. As to the kind of experiment: Immunofluorescence study of type III collagen expression in human fibroblasts. Format: cell-based. The conditions noted are these: 1% of a solution at 100 ppm of peptide, 48 hours. How it is done:
(§4) The immunofluorescence is a semi-quantitative technique which makes it possible to appreciate the rate of each protein present in the cellular cytoplasm.
as §1, §2, §3

The subject of a further data set is fibronectin. The experiment in a line: Immunofluorescence study of fibronectin expression in human fibroblasts. Format: cell-based. The conditions noted are these: 1% of a solution at 100 ppm of peptide, 48 hours. How it is done: as §4, §1, §2, §3
The next data set relates to type I collagen. As to the kind of experiment: Immunofluorescence study of type I collagen expression in human fibroblasts. Format: cell-based. The conditions noted are these: 1% of a solution at 100 ppm of peptide, 48 hours. Here is the method:
as §4, §1, §2, §3

For another data set, the system named is β1 integrin. As to the kind of experiment: Immunofluorescence study of β1 integrin expression in HaCat human keratinocytes. The conditions noted are these: 48 hours. It is filed as cell-based. Here is the method: as §1, §2, §3
(§5) A study by immunofluorescence technique, identical to that of example 3, was performed on HaCat human keratinocytes, with anti-laminin-5 antibodies and/or β1 anti-integrin antibodies.

For a further data set, the system named is laminin-5. The experiment in a line: Immunofluorescence study of laminin-5 expression in HaCat human keratinocytes. It is filed as cell-based. The conditions noted are these: 48 hours. Here is the method:
as §1, §2, §3, §5

In the case of IRLRFLR [SEQ ID NO: 4], in the data set on keratin, the “keratin expression (fluorescence intensity)” value is reported as “increases”.
Consider “RDFTKATNIRLRFLR [SEQ ID NO: 3, Arg-Asp-Phe-Thr-Lys-Ala-Thr-Asn-Ile-Arg-Leu-Arg-Phe-Leu-Arg]”, for which the “degradation of the peptide” value in data set [1] is given as “almost no degradation”; in data set [2] (after 24 hours at 25° C., 37° C. and 60° C.), “no degradation”; in data set [2] (after 8 days at 25° C.), “does not present degradation”. Besides, the “peptide concentration in the culture medium” value in data set [3] is “decreases quickly”.
With DFTKATNIRLRFLR [SEQ ID NO: 11], the cell adhesion entry in the data set on keratinocytes is “very good cell adhesion”.
With “Ile-Arg-Leu-Arg-Phe-Leu-Arg-NH2 (IRLRFLR-NH2) [SEQ ID NO: 5]”, in the data set with type III collagen, the “type III collagen synthesis (fluorescence intensity)” value is reported as “increases”. For the same substance, the “fibronectin synthesis (fluorescence intensity)” value with fibronectin is given as “increases”. Besides, the “type I collagen synthesis (fluorescence intensity)” value with type I collagen was “increases”. Also, in the data set with β1 integrin, the “β1 integrin synthesis (fluorescence intensity)” value is given as “increase”. Besides, in the data set with laminin-5, the “laminin-5 synthesis (fluorescence intensity)” value was “increase”.
